According to article PMC11879280, “Antimicrobial activity of peptoids against Metallo-β-lactamase-producing Klebsiella pneumoniae, Acinetobacter baumannii, Pseudomonas aeruginosa, and other WHO priority pathogens, including Candida auris” (Journal of Applied Microbiology, 2025):
Like-named read-outs stand apart in the source and are kept apart here. Square brackets hold non-standard residues; d marks the D form. Ends that are not written are not given here. Peptide text beside a SMILES is read from it. N(tridecyl)Gly = CCCCCCCCCCCCCNCC(=O)O; Nspe = C[C@H](NCC(=O)O)c1ccccc1; Nlys = NCCCCNCC(=O)O

Columns and labels:
[1] = system: C. auris CBS12373; test: Broth microdilution MIC; type: cell-based, Candida auris
[2] = system: C. auris CBS10913
[3] = system: ESKAPEE pathogens (all bacteria); test: Geometric mean MIC, therapeutic index and selectivity ratio, all bacteria; type: cell-based; details: for Geometric mean MIC, all bacteria: across the 23 ESKAPEE strains
Method in brief: (§1)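 Inoculum 5 × 10^5 CFU ml^−1 in CAMHB for antibiotics or MHB for peptidomimetics; incubated 37°C, 120 rpm, 16–20 h. Suspensions plated on Trypticase Soya Agar with phosphatidylcholine and Tween 80 for MBC/MFC. Geometric mean MIC computed across pathogens; therapeutic index calculated by formula.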

[4] = system: K. pneumoniae JIE4212
Method in brief: (§2)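 Cation-adjusted MHB for antibiotics, plain MHB for peptidomimetics; 5 × 10^5 CFU ml^−1; 16–20 h at 37°C, 120 rpm. Geometric mean MIC across pathogens calculated for peptoids.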

[5] = system: A. baumannii 005
Method in brief: as §2

[6] = system: A. baumannii 006
Method in brief: as §2

[7] = system: En. cloacae 001
Method in brief: as §2

[8] = system: A. baumannii ATCC 19 606
Method in brief: as §2

[9] = system: S. aureus 117
Method in brief: as §2

[10] = system: K. pneumoniae JIE2713
Method in brief: as §2

[11] = system: E. coli 0011
Method in brief: as §2

[12] = system: P. aeruginosa AR-1270
Method in brief: as §2

[13] = system: En. cloacae 005
Method in brief: as §2

[14] = system: Enteroc. faecalis NCTC 13 379
Method in brief: as §2

[15] = system: S. aureus 38
Method in brief: as §2

[16] = system: S. aureus 105
Method in brief: as §2

[17] = system: horse red blood cells (RBCs); test: Haemolysis assay; type: cell-based
Method in brief: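 Washed horse RBCs exposed to peptoids at 0.5–250 μg ml^−1 in PBS for 4 h at 37 °C; supernatant OD 540 nm read after centrifugation. Percent haemolysis normalized between PBS (0%) and water (100%) controls, in triplicate.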

[18] = system: MBL-producing bacteria; test: Geometric mean MIC, therapeutic index and selectivity ratio, MBL-producing bacteria; type: cell-based
Method in brief: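 Values are geometric means of MICs over the pathogen panel. MICs were read after 16–20 h shaking at 37°C and 120 rpm, with 5 × 10^5 CFU ml^−1 in MHB (peptidomimetics) or CAMHB (antibiotics), and bactericidal endpoints from subculture. Strips ran 20 h at 37°C on Mueller–Hinton agar lawns (1.5 × 10^8 CFU ml^−1).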

[19] = system: Enterobacteriaceae; test: Geometric mean MIC, therapeutic index and selectivity ratio, Enterobacteriaceae; type: cell-based; details: Enterobacteriaceae (E. coli, K. pneumoniae, and E. aerogenes)
Method in brief: as §1

[20] = CBS 12 373, RPMI 1640 with MOPS, 5 × 10^3 CFU ml^−1, ≥90% reduction (≥50% for fluconazole)
[21] = CBS 10 913, RPMI 1640 with MOPS, 5 × 10^3 CFU ml^−1, ≥90% reduction (≥50% for fluconazole)
[22] = K. pneumoniae JIE4212, MHB (melimine/Mel4 with 0.2% BSA, 0.01% acetic acid), mean MIC
[23] = A. baumannii 005, MHB (melimine/Mel4 with 0.2% BSA, 0.01% acetic acid), mean MIC
[24] = A. baumannii 006, MHB (melimine/Mel4 with 0.2% BSA, 0.01% acetic acid), mean MIC
[25] = En. cloacae 001, MHB (melimine/Mel4 with 0.2% BSA, 0.01% acetic acid), mean MIC
[26] = A. baumannii ATCC 19 606, MHB (melimine/Mel4 with 0.2% BSA, 0.01% acetic acid), mean MIC
[27] = S. aureus 117, MHB (melimine/Mel4 with 0.2% BSA, 0.01% acetic acid), mean MIC
[28] = K. pneumoniae JIE2713, MHB (melimine/Mel4 with 0.2% BSA, 0.01% acetic acid), mean MIC
[29] = E. coli 0011, MHB (melimine/Mel4 with 0.2% BSA, 0.01% acetic acid), mean MIC
[30] = P. aeruginosa AR-1270, MHB (melimine/Mel4 with 0.2% BSA, 0.01% acetic acid), mean MIC
[31] = En. cloacae 005, MHB (melimine/Mel4 with 0.2% BSA, 0.01% acetic acid), mean MIC
[32] = Enteroc. faecalis NCTC 13 379, MHB (melimine/Mel4 with 0.2% BSA, 0.01% acetic acid), mean MIC
[33] = S. aureus 38, MHB (melimine/Mel4 with 0.2% BSA, 0.01% acetic acid), mean MIC
[34] = S. aureus 105, MHB (melimine/Mel4 with 0.2% BSA, 0.01% acetic acid), mean MIC
[35] = horse RBCs in PBS, 37°C, 4 h, OD 540 nm, triplicate, best fit curve
[36] = horse RBCs in PBS, 37°C, 4 h, value in brackets

Compound | MIC against C. auris [1, 20] [µg/mL] | MIC against C. auris [2, 21] [µg/mL] | Geometric mean MIC, all bacteria [3] [µg/mL] | Geometric mean MIC, all bacteria ([3]; value in brackets) [µM] | MIC of peptidomimetics [4, 22] [µg/mL] | MIC of peptidomimetics [5, 23] [µg/mL] | MIC of peptidomimetics [6, 24] [µg/mL] | MIC of peptidomimetics [7, 25] [µg/mL] | MIC of peptidomimetics [8, 26] [µg/mL] | MIC of peptidomimetics [9, 27] [µg/mL] | MIC of peptidomimetics [10, 28] [µg/mL] | MIC of peptidomimetics [11, 29] [µg/mL] | MIC of peptidomimetics [12, 30] [µg/mL] | MIC of peptidomimetics [13, 31] [µg/mL] | MIC of peptidomimetics [14, 32] [µg/mL] | MIC of peptidomimetics [15, 33] [µg/mL] | MIC of peptidomimetics [16, 34] [µg/mL] | Geometric mean MICMBL [18] [µg/mL] | Geometric mean MICE [19] [µg/mL] | HD10 (10% haemolytic dose) [17, 35] [µg/mL] | further results
CCCCCCCCCCCCCNCC(=O)N(CCCCN)CC(=O)N(CC(=O)N(CC(=O)N(CCCCN)CC(=O)N(CCCCN)CC(N)=O)[C@@H](C)c1ccccc1)[C@@H](C)c1ccccc1 [TM15] (H-[N(tridecyl)Gly][Nlys][Nspe][Nspe][Nlys][Nlys]-NH2) | 3.9 | 250 | 32.2 | 33.4 | 62.5 | 62.5 | 62.5 | 15.6 | 62.5 | 7.8 | 125 | 62.5 | 31.3 | 31.3 | 31.3 | 7.8 | 7.8 | 52.6 | 50.8 | – | MIC against C. auris ([1]; CBS12373): 4.0 µM; MIC against C. auris ([2]; CBS10913): 259.6 µM; Fold increase in geometric mean MIC relative to TM8 ([3]; bacteria): 4 fold; MIC of peptidomimetics ([4]; JIE4212): 64.9 µM; MIC of peptidomimetics [5]; 005: 64.9 µM; MIC of peptidomimetics [6]; 006: 64.9 µM; MIC of peptidomimetics [7]: 16.2 µM; MIC of peptidomimetics ([8]; ATCC 19): 64.9 µM; MIC of peptidomimetics [9]; 117: 8.1 µM; MIC of peptidomimetics ([10]; JIE2713): 129.8 µM; MIC of peptidomimetics [11]; 0011: 64.9 µM; MIC of peptidomimetics ([12]; AR-1270): 32.5 µM; MIC of peptidomimetics [13]: 32.5 µM; MIC of peptidomimetics ([14]; NCTC 13): 32.4 µM; MIC of peptidomimetics [15]; 38: 8.1 µM; MIC of peptidomimetics [16]; 105: 8.1 µM; HD10 (10% haemolytic dose) [17]: 24.5 µmol/L; HD50 (50% haemolytic dose) [17]: 89.7 µmol/L; HD10 (10% haemolytic dose) ([17]; red cells of horse, 4 h): 23.6 µg/mL; HD50 (50% haemolytic dose) ([17]; red cells of horse, 4 h): 86.4 µg/mL
KNKRKRRRRRRGGRRRR [Mel4] | 3.9 | 125 | 149.8 | 63.8 | 250 | 250 | 62.5 | 250 | 125 | 62.5 | 250 | 62.5 | 500 | 250 | 500 | 62.5 | 62.5 | 162.1 | 164.9 | > 256 | HD50 (50% haemolytic dose) [17, 35]: > 256 µg/mL; HD10 (10% haemolytic dose) [17, 36]: > 109 µmol/L; HD50 (50% haemolytic dose) [17, 36]: > 109 µmol/L
TLISWIKNKRKQRPRVSRRRRRRGGRRRR [Melimine] | 3.9 | 125 | 132.8 | 35.1 | 250 | 125 | 62.5 | 125 | 62.5 | 31.3 | 125 | 125 | 500 | 250 | 500 | 31.3 | 31.3 | 162.1 | 189.5 | > 256 | MIC against C. auris ([1]; CBS 12 373, value in brackets): 1.03 µM; MIC against C. auris ([2]; CBS 10 913, value in brackets): 33.0 µM; MIC of peptidomimetics ([4]; K. pneumoniae JIE4212, value in brackets): 66.0 µM; MIC of peptidomimetics ([5]; A. baumannii 005, value in brackets): 33.0 µM; MIC of peptidomimetics ([6]; A. baumannii 006, value in brackets): 16.5 µM; MIC of peptidomimetics ([7]; En. cloacae 001, value in brackets): 33.0 µM; MIC of peptidomimetics ([8]; A. baumannii ATCC 19 606, value in brackets): 16.5 µM; MIC of peptidomimetics ([9]; S. aureus 117, value in brackets): 8.2 µM; MIC of peptidomimetics ([10]; K. pneumoniae JIE2713, value in brackets): 33.0 µM; MIC of peptidomimetics ([11]; E. coli 0011, value in brackets): 33.0 µM; MIC of peptidomimetics ([13]; En. cloacae 005, value in brackets): 66.0 µM; MIC of peptidomimetics ([15]; S. aureus 38, value in brackets): 8.2 µM; MIC of peptidomimetics ([16]; S. aureus 105, value in brackets): 8.2 µM; HD50 (50% haemolytic dose) [17, 35]: > 256 µg/mL; HD10 (10% haemolytic dose) [17, 36]: > 67.6 µmol/L; HD50 (50% haemolytic dose) [17, 36]: > 67.7 µmol/L
